Several values for one entry are separate records, joined by “and”; a condition that tells them apart may be missing. Equal entries are not always repeated. Activity calls are given as the source filed them.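 How the source made its calls: active means compounds giving half or more protection of infected cells from virus-caused growth loss, again on retest; inactive means the rest.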 Where a SMILES comes first, the peptide text is derived from it. The star is where a group is joined. Cbz = O=C(OCc1ccccc1)*
Tested on: CEM cells HIV-1 protection, formazan growth assay
Experiment: NCI AIDS Antiviral Assay
Conditions: for IC50: measured here: growth of uninfected CEM cells
Method in brief: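 Steps: treat uninfected and HIV-1-infected human CEM cells at five drug levels; quantify growth by soluble formazan; retest any compound reaching 50% protection; classify actives from the retest.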

| Compound | EC50 [µM] | IC50 | outcome |
| --- | --- | --- | --- |
| N#Cc1ccccc1OCCOc1ccccc1C#N | > 200 | > 200 µM | – |
| C/C(CC(=O)NC1=CC=C(NC(=O)C/C(C)=N\Nc2ccccc2)CC1)=N/Nc1ccccc1 | > 56.2 | > 56.2 µM | – |
| CCOC(=O)[C@@H]1ON2O[C@H](OC3CCCC3(c3ccccc3)c3ccccc3)C[C@H]3OC(=O)[C@@H]1C32 (stereo partly specified) | > 200 | 32.4 µM | – |
| O=S1(c2ccccc2)=NC(=S)Nc2ccccc21 (stereo unspecified) | 17.4 | > 200 µM | – |
| O=C(O)c1cc2ccccc2c(S(=O)(=O)O)c1O | > 200 | > 200 µM | – |
| O=C1c2c(O)cccc2Cc2cc(CO)cc(O)c21 | > 200 | 0.933 µM | – |
| O=C(O)/C(O)=C1/C=C(c2ccccc2)c2ccccc21 | – | – | inactive |
| O=S(=O)(c1ccccc1)C1(Sc2ccccc2)CC(Br)[C@@H](Br)C1 (stereo partly specified) | > 15.1 | > 15.1 µM | – |
| Cc1ccc(SSCC(O)C(O)CSSc2ccc(C)cc2)cc1 (stereo unspecified) | – | – | inactive |
| CN(C)CCCN1C(=O)CCC(=O)Nc2ccccc2-c2ccccc21 | – | – | inactive |
| Nc1[nH][nH]c(=O)c1N=O | > 200 | > 200 µM | – |
| CCOc1ccc2nc(NC(=O)C(=O)C(c3cnc4ccccc4n3)[N+](=O)[O-])sc2c1 (stereo unspecified) | > 155 | > 155 µM | – |
| FC1(F)[Se]C2C3CCC(C3)C2C1(F)F (stereo unspecified) | > 200 | > 200 µM | – |
| CC(=O)NC1C(OCc2ccccc2)OC(CO)C(O)C1OC(C)C(=O)NC(C)C(=O)N[C@@H](CCC(=O)OCCCNC1c2ccccc2Nc2cccc([N+](=O)[O-])c21)C(N)=O (stereo partly specified) | – | – | inactive |
| CCC1=CC2CC(C(=O)OC)C1(N(C)C)C2=O (stereo unspecified) | – | – | inactive |
| Cc1ccc(S(=O)(=O)N(CCN2C(=O)c3ccccc3C2=O)c2cc3c4c(c2)Oc2cc(N(CCN5C(=O)c6ccccc6C5=O)S(=O)(=O)c5ccc(C)cc5)cc5c2C4(C)c2c(cc(N(CCN4C(=O)c6ccccc6C4=O)S(=O)(=O)c4ccc(C)cc4)cc2O5)O3)cc1 | > 100 | 64.6 µM | – |
| C/C(C=O)=C\c1cccc(F)c1 | > 158 | > 158 µM | – |
| COC(=O)c1cc(C(=CC(=O)N[C@H]2CC[C@]3(C)C4CC[C@]5(C)[C@@H](C(C)CCCC(C)C)CC[C@H]5C4CC[C@H]3C2)c2cc(Cl)c(OC)c(C(=O)OC)c2)cc(Cl)c1OC (stereo partly specified) | > 100 | > 100 µM | – |
| Cc1ccc(C(=O)C2CC3(CCC2(O)c2ccc(C)cc2)CC(=O)Nc2ccccc2C3=O)cc1 (stereo unspecified) | > 200 | 89.1 µM | – |
| CC1=NN(C(=O)CC(=O)Nc2cccc(Cl)c2)C(=O)C1N=Nc1ccc(S(=O)(=O)c2ccc(N=NC3C(=O)N(C(=O)CC(=O)Nc4cccc(Cl)c4)N=C3C)cc2)cc1 (stereo unspecified) | > 100 | > 100 µM | – |
| COC(=O)C(NC(=O)c1ccccc1)c1ccco1 (stereo unspecified) | > 955 | 479 µM | – |

| Compound | EC50 [µM] | IC50 | outcome |
| --- | --- | --- | --- |
| CC(C)N1C(C)[C@@H](c2ccccc2)O[P@@]1(=O)CC1=CCCCC1 (stereo partly specified) | – | – | inactive |
| CN(C)CCC=C1c2ccccc2C=Cc2ccccc21 | > 200 | 33.9 µM and 28.8 µM and 37.2 µM | – |
| CSC1CC2C(CC1(C)O)C2(C)C (stereo unspecified) | > 200 | 162 µM and > 200 µM | – |
| C=Cc1ccc(CC)cn1 | > 200 | > 200 µM | – |
| CC[C@@H]1C[C@H]2CC3c4c(c5cc(OC)ccc5n4C)CCN(C2)C31 | – | – | inactive |
| O=c1[nH]c2ccccc2c(=O)n1CCCN1CCN(c2cccc(Cl)c2)CC1 | > 200 | 50.1 µM | – |
| O=C(OCCN1CCOCC1)C1C[C@@H](O)CN1C(=O)c1ccc2c(c1)OCO2 (stereo partly specified) | > 200 | > 200 µM | – |
| CC(C)(C)N1COCO[C@H]2CCC[C@@H]21 | > 525 | 186 µM | – |
| c1cnc2nc3c4ccccc4c4ccccc4c3nc2c1 | > 35.5 | > 35.5 µM | – |
| Nc1ccc(/C=C/c2ccc(NS(=O)(=O)c3ccnc4c(O)c(C(=O)O)ccc34)cc2S(=O)(=O)O)c(S(=O)(=O)O)c1 | 69.2 | > 100 µM | – |
| O=C(NOC(=O)c1ccc([N+](=O)[O-])cc1)c1ccc(Cl)cc1 | > 112 | > 112 µM | – |
| COc1ccc(NC(=O)C(=O)NO)c(OC)c1 | > 537 | 234 µM | – |
| CCC(C)C(NC(=O)C1CCCN1C(=O)OCc1ccccc1)C(=O)O (stereo not drawn) (Cbz-Pro-Ile-OH; configuration not given here) | > 692 | > 692 µM | – |
| NC1=NC(=O)C(c2ccccc2)S1 (stereo unspecified) | > 676 | > 676 µM | – |
| COc1ccc(C2SCC(=O)N2c2ccc(-n3c(-c4ccccc4)nc4ccccc4c3=O)cc2)cc1OC (stereo unspecified) | > 200 | > 200 µM | – |
| Cc1ccc2c(c1)CC1(Cc3c(C)cccc3C1=O)C2=O (stereo unspecified) | > 200 | > 200 µM | – |
| CN(CC(=O)Nc1ccccc1C(=O)O)c1ccccc1 | > 200 | 69.2 µM | – |
| CC(=O)C1CC[C@@H]2[C@H](CC[C@]3(C)[C@@H](O)CC[C@@H]23)[C@H]1C(=O)O (stereo partly specified) | > 200 | > 200 µM | – |
| Nc1[nH]c(=S)nc2nc3c(c(-c4ccccc4)c12)CCCC3 | > 50.1 | > 50.1 µM | – |
| CC(=O)CC(=O)Nc1c(C)[c]([Hg][O]C(C)=O)c(C)[c]([Hg][O]C(C)=O)[c]1[Hg][O]C(C)=O | > 1.48 | > 1.48 µM | – |
| O=S(=O)(O)c1ccc(OCCCCCCCCCCOc2ccc(S(=O)(=O)O)cc2)cc1 | > 25.7 | > 25.7 µM | – |

| Compound | EC50 [µM] | IC50 | outcome |
| --- | --- | --- | --- |
| CCOC(=O)C1SC(=Nc2ccccc2)N=C1C (stereo unspecified) | – | – | inactive |
| SC[C@@H]1COC[C@H](CS)S1 | > 95.5 | > 95.5 µM | – |
| N#Cc1nc(C2CCC2)oc1N | > 200 | > 200 µM | – |
| NCCCCCCNS(=O)(=O)c1cccc2c(Cl)cccc12 | > 200 | 13.5 µM | – |
| Nc1nc(Cl)c(N)c(NCC2(CO)CC2)n1 | > 200 | > 200 µM | – |
| CC1(C)SC(C)(C)N2C(=O)[C@H]3N(C(=O)[C@@H]21)C(C)(C)SC3(C)C | > 75.9 | > 75.9 µM | – |
| c1ccc([P+](CCN2Cc3ccccc3C2)(c2ccccc2)c2ccccc2)cc1 | > 200 | 3.31 µM | – |
| COc1cc(/C=C/C(=O)CC(=O)/C=C/c2ccc(O)c(OC)c2)ccc1O (tested in a mixture with another compound) | > 200 | 3.31 µM | – |
| O=C(O)C1NCCc2c1[nH]c1ccccc21 (stereo unspecified) | – | – | inactive |
| FC(F)(F)C1(c2ccccc2)SCc2nc3ccccc3n21 (stereo unspecified) | 77.6 | 105 µM | – |
| Cn1c(=O)n2n(c1=O)C1C3C4C3C3C5(COCC135)C42 (stereo unspecified) | > 200 | > 200 µM | – |
| c1ccc(CN(Cn2cccn2)Cn2cccn2)nc1 | – | – | inactive |
| CC(C)(C)c1onc2c1C(=O)c1ccccc1-2 | > 200 | 117 µM | – |
| COc1ccc(C(c2ccc(C(C)C)cc(=O)c2O)c2c(O)cc3oc(-c4ccccc4)cc(=O)c3c2O)cc1 (stereo unspecified) | – | – | inactive |
| CCOC(=O)C(C)(C)Oc1ccc2c(C)c(-c3ccc(Cl)cc3)c(=O)oc2c1 | > 12.9 | > 12.9 µM | – |
| CSCCC(N)C(=O)NCCNc1ccc(NCCNC(=O)C(N)CCSC)c2c1C(=O)c1ccccc1C2=O (stereo unspecified) | > 151 | 0.219 µM | – |
| O=c1[nH]n(CCc2ccncc2)c(=O)c2ccccc12 | > 200 | > 200 µM | – |
| O=C(Nc1ccc(C2=NCCN2)cc1)c1cccc(NC(=S)Nc2ccc(C3=NCCN3)cc2)c1 | 33.1 | 112 µM | – |
| COc1ccc2c3c1OC1C4(CCC5C(C2)N(CC2CC2)CCC351)OCCO4 (stereo unspecified) | > 129 | > 129 µM | – |

From PubChem BioAssay AID179 (DTP/NCI, 2004)
